The target in the test is human APJ receptor (Homo sapiens (Human), UniProt P35414). The experiment in a line: Intracellular cAMP accumulation assay (APJ hcAMP, HTRF). Conditions: HEK293 cells stably expressing human APJ receptor; inhibition of forskolin-mediated cAMP production; read-out: hAPJ cAMP EC50 Potency range. It counts as cell-based. As to the method:
Intracellular cAMP Accumulation Assay
HEK293 cells stably expressing human APJ receptor were used to assess the activity of compounds. Cultured cells were detached and resuspended in the cAMP Homogeneous Time-Resolved Fluorescence (HTRF) assay buffer (Cisbio cat; #62AM4PEJ). The assay was performed in 384-well assay plates (Perkin-Elmer; cat #6008289) according to assay protocol provided by the manufacturer. Serial dilutions of a compound together with assay buffer containing […] and 2 μM forskolin were added to each well containing 5,000 cells and incubated for 30 minutes at room temperature. Subsequently, cAMP D2 reagent was added in the lysis buffer followed by the EuK antibody (Cisbio; cat #62AM4PEJ) and incubated for 60 min. The fluorescence emission ratio was measured using fluorometer. The intracellular cAMP concentrations (compound-stimulated inhibition of forskolin-mediated cAMP production) were calculated by extrapolation from a standard curve using known cAMP concentrations. The EC50 values were obtained by fitting the data to a sigmoidal concentration-response curve with variable slope.
For orientation: Changes in cAMP serve as a functional read-out for many G protein-coupled receptors.

Chain of human APJ receptor (P35414 whole entry): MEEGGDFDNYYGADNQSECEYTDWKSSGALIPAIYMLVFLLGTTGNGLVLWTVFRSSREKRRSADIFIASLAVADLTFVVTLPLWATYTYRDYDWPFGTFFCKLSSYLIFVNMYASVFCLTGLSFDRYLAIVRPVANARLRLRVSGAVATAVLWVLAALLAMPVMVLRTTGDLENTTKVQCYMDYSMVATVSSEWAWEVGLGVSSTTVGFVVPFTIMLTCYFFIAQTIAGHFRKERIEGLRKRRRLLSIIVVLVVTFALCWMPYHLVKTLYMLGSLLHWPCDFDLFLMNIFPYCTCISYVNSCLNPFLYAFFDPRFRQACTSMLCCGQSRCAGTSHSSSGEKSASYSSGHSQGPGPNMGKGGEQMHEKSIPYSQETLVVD

In the case of `CCCCc1nc(O)c(-c2nnc(Cc3ccc(Cl)c(Cl)c3)o2)c(O)c1-c1c(OC)cccc1OC` [Example 33, 6-butyl-3-{5-[(3,4-dichlorophenyl)methyl]-1,3,4-oxadiazol-2-yl}-5-(2,6-dimethoxyphenyl) pyridine-2,4-diol], the EC50 was in the range of 0.01 to 10 nM.
As for `CCCCc1nc(O)c(-c2nnc(Cc3ccc(F)c(C(F)(F)F)c3)o2)c(O)c1-c1c(OC)cccc1OC` [Example 34, 6-butyl-5-(2,6-dimethoxyphenyl)-3-(5-{[4-fluoro-3-(trifluoromethyl)phenyl]methyl}-1,3,4-oxadiazol-2-yl)pyridine-2,4-diol], the figure is 10 to 100 nM; as for `CCCCc1nc(O)c(-c2nnc(Cc3ccc(Cl)cc3Cl)o2)c(O)c1-c1c(OC)cccc1OC` [Example 35, 6-butyl-3-{5-[(2,4-dichlorophenyl)methyl]-1,3,4-oxadiazol-2-yl}-5-(2,6-dimethoxyphenyl) pyridine-2,4-diol], 0.01 to 10 nM.
As for `CCCCc1nc(O)c(-c2nnc(Cc3c(C)n[nH]c3C)o2)c(O)c1-c1c(OC)cccc1OC` [Example 36, 6-butyl-5-(2,6-dimethoxyphenyl)-3-{5-[(3,5-dimethyl-1H-pyrazol-4-yl)methyl]-1,3,4-oxadiazol-2-yl}pyridine-2,4-diol], the figure is 10 to 100 nM; as for `CCCCc1nc(O)c(-c2nnc(Cc3ccc(C#N)cc3)o2)c(O)c1-c1c(OC)cccc1OC` [Example 37, 4-({5-[6-butyl-5-(2,6-dimethoxyphenyl)-2,4-dihydroxypyridin-3-yl]-1,3,4-oxadiazol-2-yl}methyl) benzonitrile], 0.01 to 10 nM.
As for `CCCCc1nc(O)c(-c2nnc(Cc3ccc(F)c(F)c3)o2)c(O)c1-c1c(OC)cccc1OC` [Example 38, 6-butyl-3-{5-[(3,4-difluorophenyl)methyl]-1,3,4-oxadiazol-2-yl}-5-(2,6-dimethoxyphenyl) pyridine-2,4-diol], the figure is 0.01 to 10 nM; as for `CCCCc1nc(O)c(-c2nnc(Cc3csc(-c4ccc(Cl)cc4)n3)o2)c(O)c1-c1c(OC)cccc1OC` [Example 39, 6-butyl-3-(5-{[2-(4-chlorophenyl)-1,3-thiazol-4-yl]methyl}-1,3,4-oxadiazol-2-yl)-5-(2,6-dimethoxyphenyl) pyridine-2,4-diol], 10 to 100 nM.
`CCCCc1nc(O)c(-c2nnc(C(C)c3ccc(Cl)cc3)o2)c(O)c1-c1c(OC)cccc1OC` (stereo not drawn) [Example 40, 6-butyl-3-{5-[1-(4-chlorophenyl)ethyl]-1,3,4-oxadiazol-2-yl}-5-(2,6-dimethoxyphenyl) pyridine-2,4-diol]: the concentration giving a half-maximal response (EC50) fell in the range of 0.01 to 10 nM.
The value for `CCCCc1nc(O)c(-c2nnc(Cc3nonc3C)o2)c(O)c1-c1c(OC)cccc1OC` [Example 41, 6-butyl-5-(2,6-dimethoxyphenyl)-3-{5-[(4-methyl-1,2,5-oxadiazol-3-yl)methyl]-1,3,4-oxadiazol-2-yl}pyridine-2,4-diol] was 0.01 to 10 nM; that for `CCCCc1nc(O)c(-c2nnc(COc3ccc(F)cc3)o2)c(O)c1-c1c(OC)cccc1OC` [Example 42, 6-butyl-5-(2,6-dimethoxyphenyl)-3-[5-(4-fluoro-phenoxymethyl)-1,3,4-oxadiazol-2-yl]pyridine-2,4-diol] was 10 to 100 nM.
As for `CCCCc1nc(O)c(-c2nnc(Cc3n[nH]c4ccccc34)o2)c(O)c1-c1c(OC)cccc1OC` [Example 43, 6-butyl-5-(2,6-dimethoxyphenyl)-3-[5-(1H-indazol-3-ylmethyl)-1,3,4-oxadiazol-2-yl]pyridine-2,4-diol], the figure is 0.01 to 10 nM.
As for `CCCCc1nc(O)c(-c2nnc(Cc3n[nH]c(=O)c4ccccc34)o2)c(O)c1-c1c(OC)cccc1OC` [Example 44, 4-({5-[6-butyl-5-(2,6-dimethoxyphenyl)-2,4-dihydroxypyridin-3-yl]-1,3,4-oxadiazol-2-yl}methyl)-1,2-dihydrophthalazin-1-one], the figure is 10 to 100 nM.
In the case of `CCCCc1nc(O)c(-c2nnc(C(OC)c3ccccc3)o2)c(O)c1-c1c(OC)cccc1OC` (stereo not drawn) [Example 45, 6-butyl-5-(2,6-dimethoxyphenyl)-3-{5-[methoxy(phenyl)methyl]-1,3,4-oxadiazol-2-yl}pyridine-2,4-diol], the EC50 was in the range of 10 to 100 nM.
The value for `CCCCc1nc(O)c(-c2nnc(Cc3csc(-c4ccccc4)n3)o2)c(O)c1-c1c(OC)cccc1OC` [Example 46, 6-butyl-5-(2,6-dimethoxyphenyl)-3-{5-[(2-phenyl-1,3-thiazol-4-yl)methyl]-1,3,4-oxadiazol-2-yl}pyridine-2,4-diol] was 0.01 to 10 nM; that for `CCCCc1nc(O)c(-c2nnc(CCc3nc4ccccc4o3)o2)c(O)c1-c1c(OC)cccc1OC` [Example 47, 3-{5-[2-(1,3-benzoxazol-2-yl)ethyl]-1,3,4-oxadiazol-2-yl}-6-butyl-5-(2,6-dimethoxyphenyl) pyridine-2,4-diol] was 0.01 to 10 nM; that for `CCCCc1nc(O)c(-c2nnc(Cc3ccc(F)c(OC)c3)o2)c(O)c1-c1c(OC)cccc1OC` [Example 48, 6-butyl-5-(2,6-dimethoxyphenyl)-3-{5-[(4-fluoro-3-methoxyphenyl)methyl]-1,3,4-oxadiazol-2-yl}pyridine-2,4-diol] was 0.01 to 10 nM.
As for `CCCCc1nc(O)c(-c2nnc(Cc3cncs3)o2)c(O)c1-c1c(OC)cccc1OC` [Example 49], the figure is 100 to 300 nM.
As for `CCCCc1nc(O)c(-c2nnc(COc3ccc(Cl)c(Cl)c3)o2)c(O)c1-c1c(OC)cccc1OC` [Example 50, 6-butyl-3-[5-(3,4-dichlorophenoxy-methyl)-1,3,4-oxadiazol-2-yl]-5-(2,6-dimethoxyphenyl) pyridine-2,4-diol], the figure is 10 to 100 nM; as for `CCCCc1nc(O)c(-c2nnc(Cc3cc(C)no3)o2)c(O)c1-c1c(OC)cccc1OC` [Example 51, 6-butyl-5-(2,6-dimethoxyphenyl)-3-{5-[(3-methyl-1,2-oxazol-5-yl)methyl]-1,3,4-oxadiazol-2-yl}pyridine-2,4-diol], 0.01 to 10 nM.
In the case of `CCCCc1nc(O)c(-c2nnc(CCc3nc(-c4cnccn4)no3)o2)c(O)c1-c1c(OC)cccc1OC` [Example 52, 6-butyl-5-(2,6-dimethoxyphenyl)-3-(5-{2-[3-(pyrazin-2-yl)-1,2,4-oxadiazol-5-yl]ethyl}-1,3,4-oxadiazol-2-yl)pyridine-2,4-diol], the half-maximal effective concentration (EC50) was 0.01 to 10 nM.
The value for `CCCCc1nc(O)c(-c2nnc(COc3ccc(Cl)cc3)o2)c(O)c1-c1c(OC)cccc1OC` [Example 53, 6-butyl-3-[5-(4-chlorophenoxy-methyl)-1,3,4-oxadiazol-2-yl]-5-(2,6-dimethoxyphenyl) pyridine-2,4-diol] was 10 to 100 nM; that for `CCCCc1nc(O)c(-c2nnc(CC(C)(C)c3ccc(Cl)cc3)o2)c(O)c1-c1c(OC)cccc1OC` [Example 54, 6-butyl-3-{5-[2-(4-chlorophenyl)-2-methylpropyl]-1,3,4-oxadiazol-2-yl}-5-(2,6-dimethoxyphenyl) pyridine-2,4-diol] was 0.01 to 10 nM; that for `CCCCc1nc(O)c(-c2nnc(Cc3nc(-c4ccccn4)no3)o2)c(O)c1-c1c(OC)cccc1OC` [Example 55, 6-butyl-5-(2,6-dimethoxyphenyl)-3-(5-{[3-(pyridin-2-yl)-1,2,4-oxadiazol-5-yl]methyl}-1,3,4-oxadiazol-2-yl)pyridine-2,4-diol] was 0.01 to 10 nM.
As for `CCCCc1nc(O)c(-c2nnc(Cc3ccc(OC(F)(F)F)cc3)o2)c(O)c1-c1c(OC)cccc1OC` [Example 56, 6-butyl-5-(2,6-dimethoxyphenyl)-3-(5-{[4-(trifluoromethoxy)phenyl]methyl}-1,3,4-oxadiazol-2-yl)pyridine-2,4-diol], the figure is 0.01 to 10 nM.
As for `CCCCc1nc(O)c(-c2nnc(Cc3cc(F)cc(C(F)(F)F)c3)o2)c(O)c1-c1c(OC)cccc1OC` [Example 57, 6-butyl-5-(2,6-dimethoxyphenyl)-3-(5-{[3-fluoro-5-(trifluoromethyl)phenyl]methyl}-1,3,4-oxadiazol-2-yl)pyridine-2,4-diol], the figure is 10 to 100 nM.
With `CCCCc1nc(O)c(-c2nnc(CCc3nc4ccccc4n3C)o2)c(O)c1-c1c(OC)cccc1OC` [Example 58, 6-butyl-5-(2,6-dimethoxyphenyl)-3-{5-[2-(1-methyl-1H-1,3-benzodiazol-2-yl)ethyl]-1,3,4-oxadiazol-2-yl}pyridine-2,4-diol], the EC50 lay in the range of 0.01 to 10 nM.
As for `CCCCc1nc(O)c(-c2nnc(Cc3ccnc(Cl)c3)o2)c(O)c1-c1c(OC)cccc1OC` [Example 59, 6-butyl-3-{5-[(2-chloropyridin-4-yl)methyl]-1,3,4-oxadiazol-2-yl}-5-(2,6-dimethoxyphenyl) pyridine-2,4-diol], the figure is 0.01 to 10 nM.
On to `CCCCc1nc(O)c(-c2nnc(CCc3nc(-c4ccc(OC)cc4)no3)o2)c(O)c1-c1c(OC)cccc1OC` [Example 60, 6-butyl-5-(2,6-dimethoxyphenyl)-3-(5-{2-[3-(4-methoxyphenyl)-1,2,4-oxadiazol-5-yl]ethyl}-1,3,4-oxadiazol-2-yl)pyridine-2,4-diol], for which the EC50 lay in the range of 10 to 100 nM.
The value for `CCCCc1nc(O)c(-c2nnc(C3NCCc4ccccc43)o2)c(O)c1-c1c(OC)cccc1OC` (stereo not drawn) [Example 61, 6-butyl-5-(2,6-dimethoxyphenyl)-3-[5-(1,2,3,4-tetra-hydroisoquinolin-1-yl)-1,3,4-oxadiazol-2-yl]pyridine-2,4-diol] was 0.01 to 10 nM.
As for `CCCCc1nc(O)c(-c2nnc(C(C)(C)c3ccc(Cl)c(Cl)c3)o2)c(O)c1-c1c(OC)cccc1OC` [Example 62, 6-butyl-3-{5-[2-(3,4-dichlorophenyl)propan-2-yl]-1,3,4-oxadiazol-2-yl}-5-(2,6-dimethoxyphenyl) pyridine-2,4-diol], the figure is 0.01 to 10 nM.

As usually defined, the EC50 is the concentration giving half of the maximal effect.

The record behind these values is patent US10336739B2, “4-hydroxy-3-(heteroaryl)pyridine-2-one APJ agonists” (BRISTOL-MYERS SQUIBB COMPANY, priority 2015, dated 2019).
